Assay results from article PMC9772221 (Archives of biochemistry and biophysics, 2022).
Read-outs that look alike come from different tables or passages of the source.

Key:
[1] = biological target: T1, PYCR3 (Homo sapiens, UniProt Q53H96); experiment: Competitive; type: biochemical; details: pH 7.5, 26°C, NADH fixed at 175 μM
T1 sequence (Q53H96 11-274): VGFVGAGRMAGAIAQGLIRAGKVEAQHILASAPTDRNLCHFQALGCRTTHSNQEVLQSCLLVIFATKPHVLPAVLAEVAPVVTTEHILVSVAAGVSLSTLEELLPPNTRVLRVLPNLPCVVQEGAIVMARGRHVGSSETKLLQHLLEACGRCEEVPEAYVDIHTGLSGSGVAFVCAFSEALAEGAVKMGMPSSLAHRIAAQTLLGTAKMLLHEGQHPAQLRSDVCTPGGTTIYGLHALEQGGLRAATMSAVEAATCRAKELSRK

[2] = biological target: PYCR1; details: read-out: Ki against PYCR1; cited from earlier work
[3] = biological target: T1, PYCR3; experiment: Single-point inhibition screen of proline analogs against PYCR3; type: biochemical; details: proline analog 5 mM, L-P5C 200 μM, NADH 175 μM
[4] = biological target: PYCR3; details: read-out: Ki of L-proline against PYCR3, previous estimate; cited from earlier work
[5] = tested on: PYCR1; details: PYCR1, variable L-P5C, NADH = 175 μM; cited from earlier work
[6] = biological target: T1, PYCR3; experiment: Steady-state; type: biochemical; details: pH 7.5, 26°C
[7] = biological target: T1, PYCR3; experiment: Bi-substrate kinetic analysis of PYCR3, global fitting to bi bi models; type: biochemical; details: read-out: K^P5C, L-P5C on abscissa, L-P5C binds first, pH 7.5, 26°C
[8] = PYCR3, variable L-P5C, NADH = 175 μM
[9] = PYCR3, variable L-P5C, NADPH = 175 μM
[10] = PYCR3, variable coenzyme, L-P5C = 400 μM

O=CN1CCC[C@H]1C(=O)O [Compound 2, N-formyl-L-proline]
Ki ([1]; read-out: Ki, apparent competitive (with L-P5C) inhibition constant): 1.2 ± 0.1 mM
Ki [2]: 100 µM
catalytic activity compared to the control assay with no inhibitor [3]: ≤ 50%

O=C(O)[C@@H]1CCCN1 [Compound 17, L-proline]
Ki ([1]; Ki, apparent competitive (with L-P5C) inhibition constant): 5.7 ± 0.6 mM
Ki [4]: ~8 mM

O=C(O)C1CCC=N1 [L-P5C, Δ^1-pyrroline-5-carboxylate]
Km [5]: 260 ± 63 µM
kcat [5]: 51 ± 13 s⁻¹
Km [6, 8]: 315 ± 65 µM
kcat [6, 8]: 146 ± 17 s⁻¹
Km [6, 9]: 64 ± 48 µM
kcat [6, 9]: 48 ± 11 s⁻¹
Kd ([7]; equilibrium compulsory ordered bi bi (Equation 2)): 1500 ± 700 µM
Kd ([7]; steady-state compulsory ordered bi bi (Equation 3)): 110 ± 70 µM

NC(=O)C1=CN([C@@H]2O[C@H](COP(=O)(O)OP(=O)(O)OC[C@H]3O[C@@H](n4cnc5c(N)ncnc54)[C@H](O)[C@@H]3O)[C@@H](O)[C@H]2O)C=CC1 [NADH]
Km [6, 10]: 192 ± 8 µM
kcat [6, 10]: 235 ± 5 s⁻¹

NC(=O)C1=CN([C@@H]2O[C@H](COP(=O)(O)OP(=O)(O)OC[C@H]3O[C@@H](n4cnc5c(N)ncnc54)[C@H](OP(=O)(O)O)[C@@H]3O)[C@@H](O)[C@H]2O)C=CC1 [NADPH]
Km [6, 10]: 45 ± 3 µM
kcat [6, 10]: 70 ± 2 s⁻¹
